Laboratory results from a melting point compilation (Tetko et al.; mined from patent text by program, amines drawn as free bases though some values may be those of a salt).

melting point | SMILES
114 °C | Cc1cc(C)c(C(=O)Nc2ccccc2S(C)=O)c(I)c1 (configuration not stated)
293 to 294 °C | COc1ccc(-c2c(NC(=O)c3cc(C(C)(C)C)c(O)c(C(C)(C)C)c3)cnc3ccc(Cl)cc23)cc1OC
141 to 142 °C | COc1cc2c(cc1OC)CC(=O)N(Cc1ccccc1)CC2
269 °C | CC(=O)Nc1cccc2c1C(=O)c1c-2n[nH]c1-c1cccs1
55 °C | CCCCC(C(=O)OCC)=C(Nc1cccc(SC)c1)C(=O)OCC
198 to 199 °C | COc1ccc2c(c1)c(CC(=O)N(O)C(C)C)c(C)n2C(=O)c1ccc(Cl)cc1
230 to 232 °C | Cc1nc2c(cc1C(=O)NC(=N)N)CCCCC2
94 to 96 °C | COc1ccc(N2CCN(CCC3OCCc4cc(C(=O)N(C)C)ccc43)CC2)cc1 (configuration not stated)
116 to 118 °C | O=CN(O)C(CS(=O)(=O)c1ccc(-c2ccc(OC(F)(F)F)cc2)cc1)c1ccccn1 (configuration not stated)
140 to 142 °C | CC(=O)c1c(C)[nH]c(C(C)CC(C)C)c1C (configuration not stated)
235 to 238 °C | NC(CN1C(=O)C2(COc3cc4c(cc32)OCO4)c2ccccc21)=NO (configuration not stated)
134 to 136 °C | COc1ccccc1NC(=O)Nc1ccc(N2CCN(C(=O)Nc3ccc(OCCO)cc3Cl)CC2)cc1
178 to 181 °C | Cc1ccc(NC(N)=S)nc1
149 to 150 °C | CC(=O)c1c(-c2ccc(Cl)cc2)c(-c2ccc(Cl)cc2)nn(CCN(C)C)c1=O
69 °C | CCCCCCCCSCC(=O)[C@H](Cc1ccccc1)NC(=O)[C@H](CC(C)C)NC(=O)OCc1ccccc1
219 to 229 °C | COC1C(C)OC(OC2CC(C)(O)C(C(=O)O)c3cc4c(c(O)c32)C(=O)c2c(O)cc3c(c2C4=O)OC2OC3(C)C(O)C(N(C)C)C2O)C(OC)C1(C)OC (configuration not stated)
87 °C | CCOC(=O)c1c(C(C)C)nc(C(C)C)c(C(=O)OCC)c1-c1ccc(OCc2ccccc2)cc1
292 °C | COc1ccc(Cn2c(=O)n([C@H]3CC[C@H](O)CC3)c3ccc(C(N)=O)cc32)cc1Cl
173 to 176 °C | CC(=O)SCC(C)C1CCC2C3CCC4=C(N)C(=O)CCC4(C)C3CCC12C (configuration not stated)
103 to 104 °C | CCC(=O)COc1cc(N)c(Cl)cc1C(=O)NCCN(CC)CC
131 to 134 °C | COc1ccc(-n2c(=O)c(C(=O)Cl)nc3c(Cl)cccc32)cc1
124 to 126 °C | CCCCOCCOc1ccc(-c2ccc(N3CCCCCC3)c(C=C(C)C(=O)O)c2)cc1
116 to 117 °C | CON(C)C(=O)CCc1oc(-n2ccnc2C)nc1-c1ccc(Cl)cc1
144 to 147 °C | CCC(CC)(c1ccc(F)cc1F)c1c[nH]c2c(NS(C)(=O)=O)cccc12

melting point | SMILES
175 to 177 °C | CCN(Cc1cc(Br)ccc1OCC1CC1)c1ccc(C(=O)O)cn1
74 to 75 °C | Cc1cc(C)c(CO)c(-c2ccc(F)c(C)c2)c1
138 to 140 °C | Cc1cc(-n2nc3ccc(Cl)cc3n2)c(O)c(C(C)(C)C)c1
154 to 157 °C | CC(C)CC(=O)Nc1ccc2oc3c(c2c1)CCCC3
235 to 236 °C | Cn1cc(C2=C(n3ccc4ccccc43)C(=O)NC2=O)c2ccccc21
172 to 177 °C | C=CCn1c(NCC)nc(N2CCc3ccccc3CC2)c(C#N)c1=O
186 °C | CCC1(Cl)C(=O)c2c(cc(OCC(=O)O)c(Cl)c2Cl)C1Cl (configuration not stated)
123 to 124 °C | c1ccc(COc2ccc(CNn3cncn3)cc2)cc1
73 to 76 °C | CCCCC(=O)NCCC(=O)O
104 °C | CS(=O)(=O)c1cccc(-c2ccc(C3C(CCC(O)c4ccc(F)cc4)C(=O)N3c3ccc(F)cc3)cc2)c1 (configuration not stated)
122 to 124 °C | CNC1(c2cccc(NC(=O)c3cc(OC)c(OC)c(OC)c3)c2)NC=Nc2cc(OC)c(OC)cc21 (configuration not stated)
164 to 167 °C | CCOC(=O)c1cc(O)nn1-c1ncc(Cl)cc1Cl
154 °C | COc1ccc2nccc(CCC[C@@H]3CCN(CC#Cc4ccccc4F)C[C@@H]3C(=O)O)c2c1
56 to 59 °C | CCCc1cc(COc2cc(C)nc(C)c2OC)ccc1-c1ccccc1S(=O)(=O)Nc1noc(C)c1C
99 to 100 °C | CCOCCOC(=O)C1=C(C)NC(C(OCC)OCC)=C(C(=O)OCC)C1c1cccc([N+](=O)[O-])c1 (configuration not stated)
56 to 57 °C | COc1ccc(C(=O)SC)c(O)c1
72 to 75 °C | C=CCNC(=O)c1c([Si](C)(C)C)sc2ccccc12
138 to 146 °C | CS(=O)(=O)c1ccc(Cl)cc1C(=O)O
134 to 136 °C | Cc1cccc(I)c1C(=O)NC(C)(C)CS(C)(=O)=O
125 to 130 °C | COc1ccc(Cl)c(Oc2c(Cl)nc(C)nc2Cl)c1
149 °C | CC(=O)Nc1ccc(-c2cc(C(=O)c3ccncc3)sc2N2CCOCC2)cc1
159 to 161 °C | Cc1c(-c2ccccc2)noc1-c1ccccc1C(=O)O
53.5 to 55.5 °C | CS(=O)(=O)NCCCOS(C)(=O)=O
122 to 123 °C | COc1ccc(-n2cc(-c3cccc(C(=O)O)n3)cn2)cc1

melting point | SMILES
194 °C | CSCC[C@@H](NC(=O)[C@H](Cc1ccc(O)cc1)NC(=O)OC(C)(C)C)C(=O)NCC(=O)O
194 to 195 °C | O=c1cc(N2CCOCC2)oc2ccc(Cl)cc12
223 to 225 °C | CN(C)c1ccc(-c2cccc3c2C2(COc4cc5c(cc42)CCO5)C(=O)N3Cc2ccc(C(F)(F)F)o2)cn1 (configuration not stated)
165 to 167 °C | O=C(OCc1ccc([N+](=O)[O-])cc1)C(=O)c1ccccc1C(=O)O
206 °C | O=C(Nc1ccc(C2CC(F)(F)C2(F)F)cc1)Nc1nonc1-c1ccccc1 (configuration not stated)
201 to 203 °C | Cn1cc(C2=C(c3cccc(NC4COC(C)(C)OC4)c3)C(=O)NC2=O)c2ccccc21
125 to 127 °C | CC(ON1C(C)(C)CNC(=O)CC1(C)C)c1ccccc1 (configuration not stated)
100 to 101 °C | CON1C(=O)[C@H](Cc2c[nH]c3ccccc23)NC(=O)[C@@H]1CC(C)C
82 to 84 °C | C=C(C)C(=O)OCc1ccc(O)c(C=O)c1
150 to 152 °C | COC(=O)[C@H](Cc1ccc([N+](=O)[O-])cc1)NC(=S)C1(CCCCS(C)(=O)=O)CCC1
158 to 159 °C | O=C1CCS(=O)(=O)C(CC(=O)c2ccccc2)C1 (configuration not stated)
212 °C | Clc1ccc(-c2nc(NCc3ccccc3)c3ccccc3n2)cn1
154 to 155 °C | Cc1c(NC(=O)c2cc3c(s2)C(=O)CCC3)cccc1-c1cn(C)c(=O)c(Nc2ccc(C3C(=O)N(C)CCN3C)cc2)n1 (configuration not stated)
95 to 101 °C | CC(C)Cn1c(CCCCNC(=O)c2ccccc2)nc2c(N)nc3ccccc3c21
114 to 116 °C | O=Cc1ccc(OC2CCN(c3ccccn3)CC2)cc1
238 °C | Cc1c(C(=O)O)cn(-c2ccnc3ccccc23)c1C
93 to 96 °C | CCCCCCCC/C=C\CCCCCCCCOc1ccc(C(=O)O)o1
147 to 148 °C | CCOc1cc(Oc2ccc(S(C)(=O)=O)nc2)cc2cc(C3=NCC(CCO)S3)[nH]c12 (configuration not stated)
189 to 190 °C | COC(=O)C(C)=CNC(=O)Nc1cc(C(=O)OC(C)C)c(Cl)cc1F
112 to 113 °C | COc1ccc(C(=O)Nc2cc3c(cc2CCC2CCCCN2C)OCO3)cc1 (configuration not stated)
168 to 170 °C | CC(=O)COc1ccc2ccc(=O)oc2c1
170 °C | CC(O)c1cccc(NC(=O)NCC(=O)N(c2ccccc2)C(C)C(=O)N2CCCc3ccccc32)c1 (mixture of isomers)
135 to 136 °C | CN1C(=O)C2(COc3cc4c(cc32)OCCO4)c2c(C(=O)NC3CCCC3)cccc21 (configuration not stated)
140 to 142 °C | CS(=O)(=O)c1ccc(-n2nc(C(F)(F)F)cc2-c2ccc(-c3ncco3)cc2)cc1F

melting point | SMILES
161 to 162 °C | O=C(NS(=O)(=O)c1ccccc1)c1cccc(C[C@@H]2COc3ccc(OCc4nc5cc(F)ccc5s4)cc3[C@@H]2O)c1
194 to 196 °C | Cn1ncnc1COc1nn2c(-c3ccccc3F)nncc2c1-c1cccc(C#N)c1
198 to 199 °C | COC(=O)c1cccc2c1c1c(n2Cc2ccccc2)CN(Cc2ccccc2)CC1=O
169 to 170 °C | CC(C)(NC(=O)CCS)C(=O)O
141 to 144 °C | CC(O)N1CCC(=C2c3ccccc3C=Cc3ccc(S(=O)(=O)C(F)(F)F)cc32)CC1 (configuration not stated)
244 to 246 °C | COc1cc2c3c4c(c(-c5ccccc5)cc3n(C)c2cc1OS(=O)(=O)C(F)(F)F)C(=O)NC4=O
178 to 179 °C | CC(C)c1[nH]nc(C(N)=O)c1N
165 to 168 °C | O=C1C(c2ccccc2)c2ccccc2SN1c1ccccc1O (configuration not stated)
203 to 204 °C | COc1cccc(Cc2nnc(NCCSCc3nc[nH]c3C)[nH]c2=O)c1
207 to 208 °C | O=CC(=Cc1ccc(OC(=O)c2ccccc2)cc1)C(C=O)=Cc1ccc(OC(=O)c2ccccc2)cc1
181 °C | O=C(CC(c1ccccc1)c1ccccc1)Nc1ccccc1Cl
139 to 140 °C | Oc1ccc(C2COc3cc4c(cc3C2)OCO4)cc1 (configuration not stated)
273 to 279 °C | O=C1Nc2cccnc2Nc2ccsc21
226 °C | O=C(O)CCCc1cc2nc(Cl)ccc2n1S(=O)(=O)c1ccc2oncc2c1
208 to 210 °C | Cc1oc(-c2ccccc2)nc1CCc1ccc(/C=C/C=C/C=C2OC(=O)NC2=O)cc1
150 to 152 °C | O=C(O)[C@H](Cc1ccccc1)C[C@@H](Cc1ccccc1)C(=O)O
128 °C | CC(C#Cc1ccc(Oc2cccnc2)o1)N(O)C(N)=O (configuration not stated)
110 to 111 °C | COc1cc(C=CC(=O)c2ccccc2O)cc(OC)c1
170 to 171 °C | O=C(CS(=O)(=O)c1ccc(Cl)cc1C(=O)O)c1ccccc1
126 to 128 °C | OCC1C=CC(n2c(Br)nc3cc(Cl)c(Cl)cc32)C1 (configuration not stated)
140 to 141 °C | O=C(c1ccc(F)cc1)C1CCN(C(=O)CCc2ccc(OCc3ccccc3)cc2OCc2ccccc2)CC1
83 to 85 °C | NS(=O)(=O)OCCCOc1ccccc1
135 to 137 °C | Cn1nnnc1C(C=O)=C(c1ccc(F)cc1)c1ccc(F)cc1

SMILES | melting point
C#CC(C)(C)NC(=O)c1cnc(N2CCC(N3C(=O)OCc4ccccc43)CC2)c(Cl)c1 | 135 to 138 °C
S=P(SC1CCCCC1)(C1CCCCC1)C1CCCCC1 | 82 to 85 °C
